Earlier results as cited in patent US8440172B2, “Stable soluble salts of phenylbenzimidazole sulfonic acid at PHS at or below 7.0” (Symrise AG, priority 2007, dated 2013).

Tests used:
[1] = free acid, not neutralised

- solubility in water [1]: 0.25 % w/w
- pH of cosmetic formulation needed to prevent the free acid from recrystallising (Johncock, Cosmetic & Toiletries Magazine 1999): above 6.8
- pH at which crystal formation starts (cosmetic formulation, Johncock 1999): 7.0
SMILES: O=S(=O)(O)c1ccc2nc(-c3ccccc3)[nH]c2c1 [phenylbenzimidazole sulfonic acid, 2-phenylbenzimidazole-5-sulfonic acid]
